{"source": "patent US10137174B2", "about": "“Methods and materials for treating cancers that express reduced levels of wild-type p53 polypeptides” (Mayo Foundation for Medical Education and Research, priority 2009, dated 2018)", "key": {"USP10 polypeptide": {"target": "T1, USP10 polypeptide (Homo sapiens, UniProt Q14694)", "T1 construct": "His; made in house; host or cells: E. coli BL21 (pET-28a vector)", "T1 sequence (Q14694 whole entry)": "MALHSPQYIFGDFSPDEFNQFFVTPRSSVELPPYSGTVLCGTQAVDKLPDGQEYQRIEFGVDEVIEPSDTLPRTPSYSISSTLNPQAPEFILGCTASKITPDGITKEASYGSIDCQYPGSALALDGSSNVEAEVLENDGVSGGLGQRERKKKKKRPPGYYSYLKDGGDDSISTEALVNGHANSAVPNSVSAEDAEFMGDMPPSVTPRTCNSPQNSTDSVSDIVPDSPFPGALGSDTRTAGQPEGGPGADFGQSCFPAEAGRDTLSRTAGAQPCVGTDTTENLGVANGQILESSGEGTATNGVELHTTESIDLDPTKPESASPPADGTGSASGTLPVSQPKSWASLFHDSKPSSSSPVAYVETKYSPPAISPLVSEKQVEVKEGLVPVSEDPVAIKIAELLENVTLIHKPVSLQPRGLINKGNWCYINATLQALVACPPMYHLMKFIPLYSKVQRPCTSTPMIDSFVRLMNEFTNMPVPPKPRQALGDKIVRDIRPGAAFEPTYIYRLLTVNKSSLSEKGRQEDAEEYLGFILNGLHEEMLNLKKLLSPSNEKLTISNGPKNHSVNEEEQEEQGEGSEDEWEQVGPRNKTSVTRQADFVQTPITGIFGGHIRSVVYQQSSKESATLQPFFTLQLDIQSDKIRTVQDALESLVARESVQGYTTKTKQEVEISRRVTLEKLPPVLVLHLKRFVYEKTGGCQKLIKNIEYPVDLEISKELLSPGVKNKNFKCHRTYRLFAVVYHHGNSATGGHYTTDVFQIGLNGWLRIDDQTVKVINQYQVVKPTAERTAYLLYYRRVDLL", "test": "Ub-AMC deubiquitination assay with USP10 polypeptide", "type": "biochemical", "conditions": "USP10 4 μg/mL, Ub-AMC 300 nmol/L, vs DMSO, p<0.01", "method": "FIG. 17A is a concentration curve graph plotting the level of deubiquitination of Ub-AMC observed following incubation with the indicated amounts of USP10 polypeptide (μg). FIG. 17B is a graph plotting the level of deubiquitination of Ub-AMC in the presence (right) or absence (left) of 4 μg/mL of USP10 polypeptides and the indicated compound.\nBriefly, the amount of Ub-AMC deubiquitination in vitro increased as the concentration of USP10 polypeptides increased (FIG. 17A).\nN-ethylmaleimide (1 mM), Z-phe-ala fluoromethyl ketone ([…] dihydrochloride (10 μg/mL), E-64 (10 μM), chymostatia ([…] fluoride (40 μM), E-64d (0.5 μM), and cystatin (36 μg/mL) were tested for the ability to inhibit USP10 polypeptide activity using USP10 polypeptide (4 μg/mL) and Ub-AMC (300 nmol/L). Briefly, both enzyme (USP10 polypeptide) and substrate (Ub-AMC) were freshly prepared in USP10 reaction buffer (50 mmol/L Tris-HCl (pH 7.6), 0.5 mmol/L EDTA, 5 mmol/L DTT, 0.01% Triton X-100, and 0.05 mg/mL serum albumin) for each run. Each well (except substrate control wells) in a typical assay contained 4 μg/mL of USP10, the compound, or 2% DMSO. The wells were incubated for 30 minutes to attain equilibrium, and the enzymatic reaction was then initiated by adding the substrate (300 nmol/L of Ub-AMC). […]"}, "[1]": {"test_system": "USP10 phosphorylation (PIKKs/ATM)", "test": "USP10 phosphorylation at SQ/TQ motifs after DNA damage (FLAG-USP10 IP, pSQ/TQ blot) in HCT116 cells", "type": "cell-based", "conditions": "Ku55933, 2 hours pretreatment; 10 Gy radiation; HCT116 cells with FLAG-USP10", "experimental": "Forty-eight hours later, the cells were left untreated or treated with 10 Gy radiation, 40 J/m^2 UV, or 20 mM etoposide. After an additional 1 hour, the cells were harvested. Cell lysates were subjected to immunoprecipitation with anti-FLAG antibody and immunobloted with phospho-SQ/TQ (pSQ/TQ) antibody. […] After 2 hours of incubation, cells were left untreated or treated with 10 Gy radiation. The phosphorylation of USP10 was examined as in (FIG. 6C). […] Cells were left untreated or treated with 10 Gy radiation. USP10 phosphorylation was examined by pSQ/TQ antibody.\nCells were lysed with NETN buffer (20 mM Tris-HCl, pH 8.0, 100 mM NaCl, 1 mM EDTA, 0.5% Nonidet P-40) containing 50 mM β-glycerophosphate, 10 mM NaF, and 1 mg/mL each of pepstatin A, and aprotinin. Whole cell lysates obtained by centrifugation were incubated with 2 μg of antibody and protein A or protein G Sepharose beads (Amersham Biosciences) for 2 hours at 4° C. The immunocomplexes were then washed with NETN buffer three times and separated by SDS-PAGE. Immunoblotting was performed following standard procedures."}}, "data": [{"smiles": "C[C@H](NC(=O)[C@H](Cc1ccccc1)NC(=O)OCc1ccccc1)C(=O)CF", "note": "[Z-phe-ala fluoromethyl ketone]", "values": [{"measurement": "deubiquitinating activity of USP10 polypeptides", "setting": "USP10 polypeptide; compound 80 μM", "value": "significantly inhibited"}]}, {"smiles": "O=c1cc(-c2cccc3c2Sc2ccccc2S3)oc(N2CCOCC2)c1", "note": "[KU55933]", "values": [{"measurement": "USP10 phosphorylation after IR", "setting": "[1]", "value": "inhibited"}]}, {"smiles": "CCN1C(=O)C=CC1=O", "note": "[N-ethylmaleimide]", "values": [{"measurement": "deubiquitinating activity of USP10 polypeptides", "setting": "USP10 polypeptide; compound 1 mM", "value": "significantly inhibited"}]}]}
